ChEMBL document CHEMBL5576099, “Isolation, Characterization, and Antiproliferative Activity of Terpenoids from the Tropical Plant Turraea delphinensis” (J Nat Prod, 2024)

Tests used:
Format in all cases: functional, cell-based
[1] = tested on: A549; assay: Antiproliferative activity against human A549 cells assessed as reduction in cell viability by SRB assay
[2] = tested on: MDA-MB-231; assay: Antiproliferative activity against human MDA-MB-231 cells assessed as reduction in cell viability by SRB assay
[3] = tested on: KB; assay: Antiproliferative activity against human KB cells assessed as reduction in cell viability by SRB assay
[4] = Antiproliferative activity against human KB-VIN cells over expressing p-gp assessed as reduction in cell viability by SRB assay; conditions: KBVIN
[5] = tested on: MCF7; assay: Antiproliferative activity against human MCF7 cells assessed as reduction in cell viability by SRB assay

Structure (SMILES)	IC50 [1]	IC50 [2]	IC50 [3]	IC50 [5]	IC50 [4]
CC(C)=C[C@@H]1C[C@H]([C@H]2CC[C@@]3(C)[C@@H]4CC[C@H]5C(C)(C)C(=O)CC[C@@]56C[C@@]46CC[C@]23C)CO1	> 10 µM	> 10 µM	> 10 µM	> 10 µM	> 10 µM
CC(C)=C[C@H](O)C[C@@H](CO)[C@H]1CC[C@@]2(C)[C@@H]3CC[C@H]4C(C)(C)C(=O)CC[C@@]45C[C@@]35CC[C@]12C (mixture of isomers)	> 10 µM	> 10 µM	> 10 µM	> 10 µM	9.9 µM
C[C@H]([C@H]1OC(C)(C)[C@@H](O)[C@@H]1O)[C@@H]1CC[C@]2(C)C3=CC[C@H]4C(C)(C)C(=O)CC[C@]4(C)[C@H]3CC[C@@]12C (relative stereo)	> 10 µM	> 10 µM	> 10 µM	> 10 µM	> 10 µM
CC(C)=C[C@H]1C[C@H]([C@H]2CC[C@@]3(C)[C@@H]4CC[C@H]5C(C)(C)C(=O)CC[C@@]56C[C@@]46CC[C@]23C)CO1	> 10 µM	> 10 µM	> 10 µM	> 10 µM	> 10 µM
C[C@@H](C[C@@H](O)[C@@H]1OC1(C)C)[C@@H]1CC[C@]2(C)C3=CC[C@H]4C(C)(C)C(=O)CC[C@]4(C)[C@H]3CC[C@@]12C	5.9 µM	7.1 µM	4.6 µM	6.9 µM	6.1 µM
C[C@H](C[C@@H](O)[C@@H]1OC1(C)C)[C@H]1CC[C@@]2(C)[C@@H]3CC[C@H]4C(C)(C)C(=O)CC[C@@]45C[C@@]35CC[C@]12C (relative stereo)	> 10 µM	> 10 µM	> 10 µM	> 10 µM	> 10 µM
CC1(C)C(=O)CC[C@@]2(C)C1CC=C1[C@@H]2CC[C@@]2(C)[C@H](C3CO[C@@H](C(C)(C)O)[C@H](O)C3)CC[C@]12C (stereo partly drawn)	> 10 µM	> 10 µM	> 10 µM	> 10 µM	> 10 µM
CC(C)=CCC[C@]1(C)[C@H]2[C@@H]3[C@H](C)CC[C@H]3[C@](C)(O)CC[C@H]21	8.9 µM	> 10 µM	8.9 µM	> 10 µM	> 10 µM
C=C[C@]1(C)C=C2C(=O)CC3C(C)(C)CCC[C@]3(C)C2CC1 (stereo partly drawn)	> 10 µM	> 10 µM	> 10 µM	> 10 µM	> 10 µM
C=C[C@]1(C)C=C2C(CC1)[C@@]1(C)CCCC(C)(C)C1C[C@@H]2O (stereo partly drawn)	> 10 µM	> 10 µM	> 10 µM	> 10 µM	> 10 µM
CC(=O)O[C@H]1[C@@H](OC(C)=O)[C@@]2(C)C3=CC[C@@H]([C@H]4COC(=O)C4)[C@]3(C)CC[C@@H]2[C@@]2(C)[C@@H](O)C[C@@H](O)C(C)(C)[C@H]12	> 10 µM	> 10 µM	> 10 µM	> 10 µM	> 10 µM
C[C@H](C/C=C/C(C)(C)O)[C@H]1CC[C@@]2(C)[C@@H]3CC[C@H]4C(C)(C)C(=O)CC[C@@]45C[C@@]35CC[C@]12C	9.6 µM	> 10 µM	> 10 µM	> 10 µM	> 10 µM
CC1(C)OCC([C@@H]2CC[C@]3(C)C4=CC[C@H]5C(C)(C)C(=O)CC[C@]5(C)[C@H]4CC[C@@]23C)C[C@@H](O)[C@@H]1O (stereo partly drawn)	8.3 µM	> 10 µM	9.5 µM	> 10 µM	7.9 µM
CC(C)CC(=O)[C@@H](O)[C@H](C)[C@@H]1CC[C@]2(C)C3=CC[C@H]4C(C)(C)C(=O)CC[C@]4(C)[C@H]3CC[C@@]12C	> 10 µM	> 10 µM	> 10 µM	> 10 µM	> 10 µM
C[C@H](C/C=C/C(C)(C)O)[C@H]1CC[C@@]2(C)[C@@H]3CC[C@H]4C(C)(C)[C@H](O)CC[C@@]45C[C@@]35CC[C@]12C	> 10 µM	9.3 µM	> 10 µM	> 10 µM	> 10 µM
CC(C)(O)[C@@H]1CC[C@H]([C@H]2CC[C@@]3(C)[C@@H]4CC[C@H]5C(C)(C)C(=O)CC[C@@]56C[C@@]46CC[C@]23C)CO1 (relative stereo)	9.1 µM	> 10 µM	> 10 µM	> 10 µM	> 10 µM

Second part, led by results:

IC50 [1]	IC50 [2]	IC50 [3]	IC50 [5]	Structure (SMILES)	IC50 [4]
> 10 µM	> 10 µM	> 10 µM	> 10 µM	CC(C)=CC(=O)C[C@@H](C)[C@H]1CC[C@@]2(C)[C@@H]3CC[C@H]4C(C)(C)C(=O)CC[C@@]45C[C@@]35CC[C@]12C	> 10 µM
> 10 µM	> 10 µM	9 µM	> 10 µM	C[C@@H]([C@H](O)/C=C/C(C)(C)O)[C@@H]1CC[C@]2(C)C3=CC[C@H]4C(C)(C)C(=O)CC[C@]4(C)[C@H]3CC[C@@]12C	9.5 µM
5.4 µM	> 10 µM	8.1 µM	> 10 µM	C[C@@H]([C@@H]1O[C@@H]1[C@@H]1OC1(C)C)[C@@H]1CC[C@]2(C)C3=CC[C@H]4C(C)(C)C(=O)CC[C@]4(C)[C@H]3CC[C@@]12C	8.3 µM
8 µM	> 10 µM	8.2 µM	> 10 µM	C[C@@H](C[C@@H](O)[C@H](O)C(C)(C)O)[C@@H]1CC[C@]2(C)C3=CC[C@H]4C(C)(C)[C@@H](O)CC[C@]4(C)[C@H]3CC[C@@]12C	9.7 µM
5.2 µM	4.7 µM	4.8 µM	7.2 µM	C[C@@H](C[C@@H](O)[C@@H]1OC1(C)C)[C@@H]1CC[C@]2(C)C3=CC[C@H]4C(C)(C)[C@@H](O)CC[C@]4(C)[C@H]3CC[C@@]12C [DIHYDRONILOTICIN]	5.1 µM
> 10 µM	> 10 µM	> 10 µM	> 10 µM	CC(C)=CC(=O)C[C@@H](C)[C@H]1CC[C@@]2(C)[C@@H]3CC[C@H]4C(C)(C)[C@@H](O)CC[C@@]45C[C@@]35CC[C@]12C	> 10 µM
> 10 µM	> 10 µM	> 10 µM	> 10 µM	C=C1CC[C@@H]2[C@H]([C@H]3[C@@H]1CC[C@]3(C)O)[C@@]2(C)CCC=C(C)C	> 10 µM
> 10 µM	> 10 µM	> 10 µM	> 10 µM	CC(C)=CC(O)C[C@H](C)[C@@H]1CC[C@]2(C)C3=CCC4C(C)(C)[C@@H](O)CC[C@]4(C)[C@H]3CC[C@@]12C (stereo partly drawn)	> 10 µM
6.5 µM	7.4 µM	3.9 µM	> 10 µM	CC(C)=CCC[C@@H](CO)[C@H]1CC[C@@]2(C)[C@@H]3CC[C@H]4C(C)(C)C(=O)CC[C@@]45C[C@@]35CC[C@]12C	6.2 µM
	0.0084 µM	0.0071 µM		CC(=O)O[C@H]1C(=O)[C@@]2(C)[C@H]([C@H](OC(=O)c3ccccc3)[C@]3(O)C[C@H](OC(=O)[C@H](O)[C@@H](NC(=O)c4ccccc4)c4ccccc4)C(C)=C1C3(C)C)[C@]1(OC(C)=O)CO[C@@H]1C[C@@H]2O [PACLITAXEL]	2.21 µM
